pEC50: −log10 of the molar value. “Also recorded” adds a separate entry of the source.
Key:
Xenopus oocytes [1] = test: Xenopus oocyte bioassay: progesterone-induced oocyte maturation (GVBD); format: cell-based
Description: (§1) Oocyte maturation was monitored at regular intervals using a high content image capture procedure. Immature stage VI Xenopus oocytes were transferred to wells of a flat bottom 96-well plate containing about 178 μL of L15 culture media. The oocytes were transferred using wide mouth 200 μL pipette tips with minimal transfer of culture medium (e.g., about 20 μL). Generally, the oocytes oriented with the dark-pigmented animal hemisphere facing up due to the higher density of the yolk-containing vegetal hemisphere. Incorrectly orientated oocytes were gently manipulated using a drawn-out capillary tube or other tool to rotate them into the correct orientation. […] The oocytes were incubated for about 16 hours (i.e., overnight) at 16-25° C. in the presence of 1% DMSO (i.e., 2 μL of 100% DMSO).
Oocyte maturation was stimulated by the addition of progesterone. For this, 2 μL of 1000× stock solution (2 mg/mL in ethanol) was added to the appropriate wells to yield a final concentration of 2 μg/mL (although other concentrations of progesterone may be employed). The 96-well plate was imaged from the top-down (see FIG. 4E) using a 36-megapixel Nikon D800 SLR camera with an AF Micro Nikkor 60 mm, f/2.8 lens, mounted on a dedicated copy stand (with adjustable flanking light sources).
The plate was imaged prior to and after addition of progesterone (i.e., images were taken at regular intervals over a period of 7 hours). Oocyte maturation was phenotypically assessed by the appearance of a white spot at the animal pole of the oocyte. The white spot is due to migration of the germinal vesicle towards the animal pole prior to germinal vesicle breakdown (GVBD). The high resolution images were digitally zoomed after capture to analyze the maturation status of oocytes in individual wells of the plate (FIGS. 4A-D).
The Xenopus oocyte bioassay was used to screen a collection of about 2000 low molecular weight small molecules. Oocytes were distributed among multi-well plates essentially as described above in Example 1. The test compounds were dissolved in DMSO to make 100× stock solutions. The test compounds were added to the appropriate wells at a final concentration of 100 μM (and 1% DMSO). No drug control oocytes were exposed to 1% DMSO only. Sixteen hours later, progesterone was added to the appropriate wells, with the first and last wells of each plate containing the no drug control oocytes. The rate of maturation in the first and last wells served as an intra-assay control for time taken for progesterone addition across each multiwell plate. The plates were imaged essentially as described above in Example 1.

MCF-7 cells = test: Mammosphere formation (breast cancer stem cell self-renewal), MCF-7; format: cell-based; conditions: compound first 3 days, scored day 14 (P2), 50, 5 and 0.5 μM
Excerpt: (§2) Mammosphere culture growth presents a useful indicator of the presence of breast cancer cells with stem cell-like properties. Breast cancer cell lines grown as mammospheres (under non-adherent plating conditions) recapitulate the three-dimensional organization of tumors. Importantly, assessment of stem cell self-renewal capacity can be achieved through dispersion of mammospheres to single cells and subsequent limited dilution replating. […] At day 7, mammospheres were collected, dispersed to single cells and replated at limiting dilution (P1). Spheroids were scored at day 14 (P2). Mammosphere forming units (MFUs) are defined as spheroid bodies >100 μm (MCF-7 cells) or >65 μm (MDA MB231 cells) diameter after 7 (P1) or 14 (P2) days growth in non-adherent culture.

MDA MB231 cells = test: Mammosphere formation (breast cancer stem cell self-renewal), MDA MB231; format: cell-based; conditions: compound first 3 days, scored day 14 (P2), 50, 5 and 0.5 μM
Excerpt: as §2

MCF-7 or MDA MB231 cells = test: General cell viability of breast cancer cells; format: cell-based; conditions: 0.5 μM dose
SHSY5Y = test: Neurosphere formation, neuroblastoma cell line SHSY5Y; format: cell-based; conditions: lowest dose tested 0.5 μM (FIG. 11A)
Description: (§3) The activity of the three test compounds to inhibit neurosphere formation was also tested in a neuroblastoma cell line SHSY5Y and a glioblastomoa cell line U87. All three compounds attenuated neurosphere formation in both cell lines, to varying degrees of efficacy (FIGS. 11A,B). […] None of the compounds affected cell viability.

U87 = test: Neurosphere formation, glioblastoma cell line U87; format: cell-based; conditions: lowest dose tested 0.5 μM (FIG. 11B)
Description: as §3

Xenopus oocytes [2] = test: Xenopus oocyte bioassay: oocyte maturation (GVBD) in the absence of progesterone; format: cell-based; conditions: screen at 100 μM
Description: as §1
Oocyte maturation was stimulated by the addition of progesterone. For this, 2 μL of 1000× stock solution (2 mg/mL in ethanol) was added to the appropriate wells to yield a final concentration of 2 μg/mL (although other concentrations of progesterone may be employed). […]
The plate was imaged prior to and after addition of progesterone (i.e., images were taken at regular intervals over a period of 7 hours). Oocyte maturation was phenotypically assessed by the appearance of a white spot at the animal pole of the oocyte. […]

MAP kinase (MAPK) = test: Western blot of treated oocytes, MAP kinase phosphorylation; format: cell-based, Xenopus
Excerpt: (§4) To begin to decipher the mechanism of action of the compounds that modified oocyte maturation, their effects on regulators of the meiotic cell cycle were examined. In particular, Musashi (Msi1) phosphorylation, Msi2 phosphorylation, MAP kinase phosphorylation, and Cdc2 (also called CDK1) dephosphorylation were examined in Xenopus oocytes treated with a modifying compound or only DMSO (i.e., control). The oocytes were processed for Western blot analysis using standard procedures, and the blots were probed with antibodies specific for phosphorylated or non-phosphorylated forms of the proteins of interest.

Cdc2 (also called CDK1) = test: Western blot of treated oocytes, Cdc2 (CDK1) dephosphorylation / MPF activation; format: cell-based, Xenopus; conditions: for dephosphorylation of cdc2 (CDK1), activation of MPF: activators, no progesterone, PNR-5-46 5 μM, JVM-9 100 μM (FIG. 8A)
Excerpt: as §4

Xenopus oocytes [3] = test: Xenopus oocyte bioassay: oocyte maturation (GVBD) in the absence of progesterone; format: cell-based; conditions: for activation of GVBD: no progesterone (FIG. 6)
Musashi1 (Msi1) = test: Western blot of treated oocytes, Msi1 phosphorylation; format: cell-based, Xenopus
Excerpt: as §4

Musashi2 (Msi2) = test: Western blot of treated oocytes, Msi2 phosphorylation; format: cell-based, Xenopus; conditions: FIG. 8B
Excerpt: as §4

[4] = activators, no progesterone, PNR-5-46 5 μM, JVM-9 100 μM (FIG. 8A)
[5] = in response to progesterone (FIG. 9)

Row | SMILES | mammosphere formation relative to DMSO-treated control cells (MCF-7 cells) | mammosphere formation relative to DMSO-treated control cells (MDA MB231 cells) | general cell viability (MCF-7 or MDA MB231 cells) | neurosphere formation / stem cell self-renewal (SHSY5Y) | neurosphere formation / stem cell self-renewal (U87) | progesterone-independent oocyte maturation (activator) (Xenopus oocytes [2]) | phosphorylation of MAP kinase (MAP kinase (MAPK); [4]) | dephosphorylation of cdc2 (CDK1), activation of MPF (Cdc2 (also called CDK1)) | other results
1 | CC(=O)[C@H]1CC[C@H]2[C@@H]3CCC4=CC(=O)CC[C@]4(C)[C@H]3CC[C@]12C [progesterone, reference compound] | – | – | – | – | – | – | – | – | percent of oocytes that started GVBD (Xenopus oocytes [1]; by about 7 hours, progesterone-treated oocytes (FIG. 5)): About 35%
2 | C/C1=C\CC[C@@]2(C)O[C@H]2[C@H]2OC(=O)[C@@H](CNCCCn3ccnc3)[C@@H]2CC1 [JVM-20] | effectively inhibited | effectively inhibited | no significant effect | particularly effective | particularly effective | – | – | – | effect on progesterone-stimulated maturation (Xenopus oocytes [1]; from 1 to 50 μM): accelerate; effect on progesterone-stimulated maturation (Xenopus oocytes [1]; high dose (100 μM)): inhibit
3 | C/C1=C\CC[C@@]2(C)O[C@H]2[C@H]2OC(=O)[C@@H](CNc3nc4ccccc4[nH]3)[C@@H]2CC1 [JVM-9] | – | – | – | – | – | activation of maturation; also recorded: activators; also recorded: activated spontaneous oocyte maturation | promoted phosphorylation | dephosphorylation of cdc2 | activation of GVBD (Xenopus oocytes [3]; 10 μM): less effective; activation of GVBD (Xenopus oocytes [3]; 100 and 50 μM): activated GVBD
4 | C/C1=C\CC[C@@]2(C)O[C@H]2[C@H]2OC(=O)/C(=C\c3ccc(N)cc3)[C@@H]2CC1 [PNR-5-41] | did not | did not | – | Significant inhibition | Significant inhibition | – | – | – | pEC50 (Xenopus oocytes [1]; Xenopus laevis, Oocyte, progesterone-induced, p<0.05, n=5 vs DMSO only, read-out: EC50 (inhibition of progesterone-induced maturation)): 5.30; effect on rate of progesterone-induced oocyte maturation (inhibitor) (Xenopus oocytes [1]; progesterone-induced): attenuation of progesterone-induced GVBD; also recorded: inhibitor; also recorded: inhibited progesterone-induced maturation in a dose-dependent manner; phosphorylation of MAP kinase (MAP kinase (MAPK); [5]): did not affect phosphorylation; de-phosphorylation and activation of cyclin B/CDK1 (MPF) (Cdc2 (also called CDK1); [5]): blocked; phosphorylation of Msi1 (Musashi1 (Msi1); [5]): did not affect phosphorylation
5 | C/C1=C\CC[C@@]2(C)O[C@H]2[C@H]2OC(=O)/C(=C\c3cccc(Br)c3)[C@@H]2CC1 [PNR-5-46] | effectively inhibited | effectively inhibited | no significant effect | not | not | hormone-independent activation of maturation; also recorded: activators; also recorded: induced oocyte maturation | promoted phosphorylation | dephosphorylation of cdc2 | activation (phosphorylation) of Msi2 (Musashi2 (Msi2)): triggered activation; activation (phosphorylation) of Msi1 (Musashi1 (Msi1); not shown): triggered activation; pEC50 (Xenopus oocytes [3]; Xenopus laevis, Oocyte, absence of progesterone, read-out: EC50 (activation of oocyte maturation)): 5.15; percent of oocytes that initiated GVBD (Xenopus oocytes [3]; by about 4 hours, no progesterone, 100 μM PNR-5-46 (FIG. 5)): About 35%
